In ChEMBL document CHEMBL1201862, “PubChem BioAssay data set” (2004):
Structures can show the parent of a compound that is named as a salt.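 96-well plates; 48 h exposure; 5 concentrations. Endpoints by linear interpolation between flanking doses. Not reached: highest tested concentration assigned. The concentration for 50% growth inhibition is given as GI50.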 Activity calls are given as the source filed them. Rule as the data show it: active = GI50 up to about 1.1 µM and inactive = higher.

Legend:
Assay in all cases: NCI tumour cell line growth inhibition, 48 h
A549 = tested on: A549
ACHN = tested on: ACHN
BT-549 = tested on: BT-549
EKVX = tested on: EKVX
HOP-62 = tested on: HOP-62
IGROV-1 = tested on: IGROV-1
LOX IMVI = tested on: LOX IMVI
MCF7 = tested on: MCF7
MOLT-4 = tested on: MOLT-4
NCI/ADR-RES = tested on: NCI/ADR-RES
OVCAR-8 = tested on: OVCAR-8
SK-MEL-28 = tested on: SK-MEL-28
SNB-75 = tested on: SNB-75
T47D = tested on: T47D
UACC-257 = tested on: UACC-257
UACC-62 = tested on: UACC-62
Malme-3M = tested on: Malme-3M
NCI-H23 = tested on: NCI-H23
NCI-H522 = tested on: NCI-H522

SMILES	GI50 (A549)	GI50 (ACHN)	GI50 (BT-549)	GI50 (EKVX)	GI50 (HOP-62)	GI50 (IGROV-1)	GI50 (LOX IMVI)	GI50 (MCF7)	GI50 (MOLT-4)	GI50 (NCI/ADR-RES)	GI50 (OVCAR-8)	GI50 (SK-MEL-28)	GI50 (SNB-75)	GI50 (T47D)	GI50 (UACC-257)	GI50 (UACC-62)	GI50 (Malme-3M)	GI50 (NCI-H23)	GI50 (NCI-H522)
COc1cc(/C=C2\N=C(c3ccccc3)N(c3nc4cc(C)c(C)cc4s3)C2=O)cc(OC)c1OC	30.1 µM (inactive)	27 µM (inactive)	26.8 µM (inactive)	17.5 µM (inactive)	19.9 µM (inactive)	15.9 µM (inactive)	22.4 µM (inactive)	18.5 µM (inactive)	3.31 µM (inactive)	28.1 µM (inactive)	19.8 µM (inactive)	62.2 µM (inactive)	18.5 µM (inactive)	40.9 µM (inactive)	28.9 µM (inactive)	33.3 µM (inactive)	–	–	–
CCOC(=O)C(=O)/C(=C\NC(=S)Nc1ccccc1Cl)C(=O)OCC	> 100 µM (inactive)	> 100 µM (inactive)	–	> 100 µM (inactive)	> 100 µM (inactive)	> 100 µM (inactive)	> 100 µM (inactive)	> 100 µM (inactive)	> 100 µM (inactive)	> 100 µM (inactive)	> 100 µM (inactive)	> 100 µM (inactive)	> 100 µM (inactive)	> 100 µM (inactive)	> 100 µM (inactive)	> 100 µM (inactive)	> 100 µM (inactive)	> 100 µM (inactive)	> 100 µM (inactive)
O=[N+]([O-])c1ccc2c(c1)Sc1ccccc1N2CCCCCl	> 100 µM (inactive)	> 100 µM (inactive)	> 100 µM (inactive)	> 100 µM (inactive)	> 100 µM (inactive)	> 100 µM (inactive)	> 100 µM (inactive)	> 100 µM (inactive)	87.9 µM (inactive)	> 100 µM (inactive)	> 100 µM (inactive)	> 100 µM (inactive)	> 100 µM (inactive)	–	> 100 µM (inactive)	–	> 10 µM (inactive)	> 100 µM (inactive)	> 100 µM (inactive)
Cc1ccc(C)c(NC(=O)C(=O)C2C(=O)C3=C(CC2(C)C)Nc2ccccc2S3)c1 (stereo unspecified)	> 100 µM (inactive)	> 100 µM (inactive)	> 100 µM (inactive)	73.5 µM (inactive)	31.6 µM (inactive)	69.7 µM (inactive)	> 100 µM (inactive)	> 100 µM (inactive)	23.9 µM (inactive)	65.2 µM (inactive)	33.8 µM (inactive)	> 100 µM (inactive)	29.4 µM (inactive)	–	> 100 µM (inactive)	> 100 µM (inactive)	–	> 100 µM (inactive)	> 100 µM (inactive)
CCOC(=O)Cc1csc(N/C=C2/C(=O)Oc3ccccc3C2=O)n1	34.2 µM (inactive)	12 µM (inactive)	–	35.8 µM (inactive)	20.9 µM (inactive)	19.1 µM (inactive)	25.6 µM (inactive)	40.8 µM (inactive)	10.2 µM (inactive)	17.7 µM (inactive)	13.1 µM (inactive)	25.1 µM (inactive)	10.9 µM (inactive)	–	20.8 µM (inactive)	13.5 µM (inactive)	1.79 µM (inactive)	22.8 µM (inactive)	13.5 µM (inactive)
c1csc(-c2nnc(C34CC5CC(CC(C5)C3)C4)o2)c1	39.4 µM (inactive)	33.3 µM (inactive)	–	44.1 µM (inactive)	29.4 µM (inactive)	31.9 µM (inactive)	23.6 µM (inactive)	< 0.01 µM (active)	24.7 µM (inactive)	21.7 µM (inactive)	37.6 µM (inactive)	40.6 µM (inactive)	32.5 µM (inactive)	26.9 µM (inactive)	–	36.2 µM (inactive)	16.4 µM (inactive)	42.7 µM (inactive)	36.8 µM (inactive)
CC1=C(CO)C2=C(C)C3(CC3)[C@@](C)(O)C(=O)C2=C1 [IROFULVEN]	0.113 µM (active)	0.262 µM (active)	–	0.19 µM (active)	0.161 µM (active)	0.149 µM (active)	0.582 µM (active)	0.242 µM (active)	0.785 µM (active)	0.241 µM (active)	0.219 µM (active)	0.582 µM (active)	0.191 µM (active)	0.218 µM (active)	0.227 µM (active)	–	0.218 µM (active)	0.0877 µM (active)	0.146 µM (active)
NCCCNCCCCNCCCN [SPERMINE TETRAHYDROCHLORIDE]	> 100 µM (inactive)	4.12 µM (inactive)	–	17.8 µM (inactive)	> 100 µM (inactive)	13.2 µM (inactive)	8.11 µM (inactive)	2.79 µM (inactive)	4.53 µM (inactive)	44.6 µM (inactive)	34.3 µM (inactive)	–	> 100 µM (inactive)	2.36 µM (inactive)	> 71.1 µM (inactive)	> 100 µM (inactive)	93.1 µM (inactive)	67 µM (inactive)	0.374 µM (active)
